Earlier results on 2 molecules are cited in patent US20160018671A1, “DRUG DELIVERY FROM CONTACT LENSES WITH A FLUIDIC MODULE” (ONEFOCUS TECHNOLOGY, LLC, priority 2013, published 2016).

For this series the following is noted: contact lenses passively impregnated with the drug; for IOP reductions: compared with conventional therapy.

Counter-ions that a name gives are not always drawn.

For the molecule `CC(C)(C)NC[C@H](O)COc1nsnc1N1CCOCC1` [timolol maleate], the toxicity result is reported as “no toxicity” and the IOP reductions result was “equivalent to conventional therapy”.

As to brimonidine tartrate, the toxicity result was “no toxicity” and the IOP reductions result is “equivalent to conventional therapy”.
